Experimental data: patent US20260014232A1, “Pharmaceutical Composition of GLP-1 and GIP Receptor Dual Agonist and Use Thereof” (Jiangsu Hengrui Pharmaceuticals Co., Ltd., priority 2021, published 2026)
Where two headings read alike, the source gives them in different places. Starred links: 1 amine or outer side, 2 acyl side, 3 side chain; linkers in the order of their positions; H or OH if unused. Non-standard residues stand in square brackets, D forms with d. Residues, ends and D or L forms follow the SMILES beside them. Groups on a side chain read outwards from the residue. No end group written: not given here. *: point of attachment. C20 diacid = O=C(O)CCCCCCCCCCCCCCCCCCC(=O)*; Arachidoyl = CCCCCCCCCCCCCCCCCCCC(=O)*; γGlu = O=C(O)[C@H](CCC(=O)[*:2])N[*:1]; AEEA = NCCOCCOCC(=O)O; Aib = CC(C)(N)C(=O)O

What was measured:
[1] = Stability of compounds in human plasma (LC-MS); format: in vitro ADME
Procedure: 5 μL of each of samples at concentrations of 20 ng/ml, 50 ng/ml, 100 ng/ml, 200 ng/ml, 500 ng/mL, 1000 ng/mL, 2000 ng/mL, 5000 ng/mL, and 10000 ng/mL was added to 45 μL of human plasma. The content of the compounds in the samples was determined by the LC-MS method and a standard curve was formed. 5 μL of a 1 mg/mL polypeptide solution was added to 45 μL of human plasma. […] With the content at 0 min as the standard (100%), the relative content of the retained compounds in the samples at other time points was calculated.

[2] = Blood glucose in normal mice after single subcutaneous administration and intraperitoneal glucose; format: in vivo, C57BL/6 mice; settings: for Blood glucose: glucose i.p. 18 h later, mean ± SD
Procedure: 18 h later, a glucose solution at a concentration of 0.2 g/mL was intraperitoneally injected. Blood glucose values were measured by collecting blood from the tail of mice at time points of 0 min, 15 min, 30 min, 60 min, and 120 min according to the experimental design. The specific procedures were as follows: the mouse was physically immobilized with the tail exposed, a little part was cut off at the tail end, then the tail was squeezed to bleed, and blood glucose was determined using a Roche active glucometer after the 1st drop of blood was discarded. The area under the blood glucose curve (AUC) was calculated from the results of all time points.

[3] = Body weight of diet-induced-obesity mice after subcutaneous administration; format: in vivo, C57BL/6 mice; settings: induced-obesity mice, 10 nmol/kg
Procedure: High-fat food-induced-obesity male C57BL/6 mice (weighing 35-55 g, aged 10-12 weeks, purchased from Shanghai Jiesijie Laboratory Animal Co., Ltd.) were tested. […] According to the experimental design, the body weight of each mouse was measured and recorded on day 0, day 3, day 6, and so on to day 27, the average body weight of each group of mice was calculated, and body weight change curves were plotted by taking the body weight on the first day as the standard. At the end, the fat and other visceral organs of each part of the mice were taken out and weighed, and the viscera/brain ratio for fat in each part of each mouse was calculated. The effect of the drug on the fat was determined by comparing the change in the viscera/brain ratio for fat of different parts of each group of mice.

[4] = target: human glucose-dependent insulinotropic polypeptide receptor (GIPR) (human) (UniProt P48546); experiment: cell-based or functional assay
[5] = target: T1, human glucagon-like peptide-1 receptor (GLP-1R) (human, UniProt P43220 24-463); experiment: cell-based or functional assay
[6] = target: T2, human glucose-dependent insulinotropic polypeptide receptor (GIPR) (human, UniProt P48546 22-466); experiment: cell-based or functional assay
T2 sequence (looked up): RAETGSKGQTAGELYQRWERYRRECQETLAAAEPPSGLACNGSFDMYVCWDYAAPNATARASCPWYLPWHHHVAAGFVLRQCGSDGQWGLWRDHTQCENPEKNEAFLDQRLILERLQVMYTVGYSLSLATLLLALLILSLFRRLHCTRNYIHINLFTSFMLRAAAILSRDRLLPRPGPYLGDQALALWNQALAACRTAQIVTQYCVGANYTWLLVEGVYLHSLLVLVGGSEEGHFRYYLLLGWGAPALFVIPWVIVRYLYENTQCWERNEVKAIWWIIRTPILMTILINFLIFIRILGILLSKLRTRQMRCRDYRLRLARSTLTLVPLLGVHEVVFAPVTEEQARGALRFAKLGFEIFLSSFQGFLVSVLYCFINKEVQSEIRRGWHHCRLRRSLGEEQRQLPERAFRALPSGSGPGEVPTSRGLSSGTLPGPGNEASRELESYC

[7] = target: T1, human glucagon-like peptide-1 receptor …; experiment: cell-based or functional assay; remark: listed apart in the source
[8] = target: T2, human glucose-dependent insulinotropic …; experiment: cell-based or functional assay; remark: listed apart in the source

CC[C@H](C)[C@H](NC(=O)[C@H](CCCCN)NC(=O)[C@H](CC(=O)O)NC(=O)[C@H](CCCCNC(=O)COCCOCCNC(=O)COCCOCCNC(=O)CC[C@H](NC(=O)CCCCCCCCCCCCCCCCCCC(=O)O)C(=O)O)NC(=O)[C@H](Cc1ccc(O)cc1)NC(=O)[C@@H](NC(=O)[C@H](CO)NC(=O)[C@H](Cc1ccc(O)cc1)NC(=O)[C@H](CC(=O)O)NC(=O)[C@H](CO)NC(=O)[C@@H](NC(=O)[C@H](Cc1ccccc1)NC(=O)[C@@H](NC(=O)CNC(=O)[C@H](CCC(=O)O)NC(=O)C(C)(C)NC(=O)[C@@H](N)Cc1ccc(O)cc1)[C@@H](C)O)[C@@H](C)O)[C@@H](C)CC)C(=O)N[C@@H](C)C(=O)N[C@@H](C)C(=O)N[C@@H](CCC(N)=O)C(=O)N[C@@H](CCC(=O)O)C(=O)N[C@@H](Cc1ccccc1)C(=O)N[C@H](C(=O)N[C@@H](CC(N)=O)C(=O)N[C@@H](Cc1c[nH]c2ccccc12)C(=O)N[C@@H](CC(C)C)C(=O)N[C@@H](CC(C)C)C(=O)N[C@@H](C)C(=O)NCC(=O)NCC(=O)N1CCC[C@H]1C(=O)N[C@@H](CO)C(=O)N[C@@H](CO)C(=O)NCC(=O)N[C@@H](C)C(=O)N1CCC[C@H]1C(=O)N1CCC[C@H]1C(=O)N1CCC[C@H]1C(=O)N[C@@H](CO)C(N)=O)C(C)C [Compound 7#] (H-Y[Aib]EGTFTSDYSIYK([AEEA-AEEA-γGlu-C20 diacid])DKIAAQEFVNWLLAGGPSSGAPPPS-NH2)
Relative content of compounds retained in plasma ([1]; 0 min): 100.00% | Relative content of compounds retained in plasma ([1]; 240 min): 102.15% | area under the blood glucose curve reduced compared with placebo ([2]; 10 nmol/kg): more than 60% | AUC (area under the blood glucose curve) ([2]; 10 nmol/kg s.c., 0-120 min): 10.7 ± 1.8 mmol·h/L | Blood glucose ([2]; 10 nmol/kg s.c., 0 min): 4.4 ± 0.8 mmol/L | Blood glucose ([2]; 10 nmol/kg s.c., 15 min): 6.7 ± 0.8 mmol/L | Blood glucose ([2]; 10 nmol/kg s.c., 30 min): 6.2 ± 1.3 mmol/L | Blood glucose ([2]; 10 nmol/kg s.c., 60 min): 5.7 ± 1.2 mmol/L | Blood glucose ([2]; 10 nmol/kg s.c., 120 min): 3.8 ± 1.1 mmol/L | Body weight change ([3]; Day 1, mean ± SD): 0% | Body weight change ([3]; Day 4, mean ± SD): −11.0 ± 1.0% | Body weight change ([3]; Day 7, mean ± SD): −17.6 ± 2.6% | Body weight change ([3]; Day 10, mean ± SD): −22.6 ± 5.9% | Body weight change ([3]; Day 13, mean ± SD): −22.3 ± 6.3% | Body weight change ([3]; Day 16, mean ± SD): −22.7 ± 6.9% | Body weight change ([3]; Day 19, mean ± SD): −25.9 ± 6.2% | Body weight change ([3]; Day 22, mean ± SD): −23.9 ± 5.6% | Body weight change ([3]; Day 25, mean ± SD): −23.9 ± 5.6% | Body weight change ([3]; Day 28, mean ± SD): −25.5 ± 5.3%

Natural GIP (from UniProt P09681 52-93) (ligand)
Activity against human GIPR (EC50 nM); cAMP HTRF, CHO-K1 cells overexpressing hGIP receptor [4]: 0.006 nM

Semaglutide (peptide)
Activity against human GIPR (EC50 nM); cAMP HTRF, CHO-K1 cells overexpressing hGIP receptor [4]: > 10 nM

B1: compound 16# (peptide)
peptide: Y[Aib]EGTFTSDYSIYK([AEEA-AEEA-γGlu-Arachidoyl])EKIAAQEFINWLLAGGPSSGAPPPS-NH2
modifications: N-terminus assumed
SMILES: CCCCCCCCCCCCCCCCCCCC(=O)N[C@@H](CCC(=O)NCCOCCOCC(=O)NCCOCCOCC(=O)NCCCC[C@H](NC(=O)[C@H](Cc1ccc(O)cc1)NC(=O)[C@@H](NC(=O)[C@H](CO)NC(=O)[C@H](Cc1ccc(O)cc1)NC(=O)[C@H](CC(=O)O)NC(=O)[C@H](CO)NC(=O)[C@@H](NC(=O)[C@H](Cc1ccccc1)NC(=O)[C@@H](NC(=O)CNC(=O)[C@H](CCC(=O)O)NC(=O)C(C)(C)NC(=O)[C@@H](N)Cc1ccc(O)cc1)[C@@H](C)O)[C@@H](C)O)[C@@H](C)CC)C(=O)N[C@@H](CCC(=O)O)C(=O)N[C@@H](CCCCN)C(=O)N[C@H](C(=O)N[C@@H](C)C(=O)N[C@@H](C)C(=O)N[C@@H](CCC(N)=O)C(=O)N[C@@H](CCC(=O)O)C(=O)N[C@@H](Cc1ccccc1)C(=O)N[C@H](C(=O)N[C@@H](CC(N)=O)C(=O)N[C@@H](Cc1c[nH]c2ccccc12)C(=O)N[C@@H](CC(C)C)C(=O)N[C@@H](CC(C)C)C(=O)N[C@@H](C)C(=O)NCC(=O)NCC(=O)N1CCC[C@H]1C(=O)N[C@@H](CO)C(=O)N[C@@H](CO)C(=O)NCC(=O)N[C@@H](C)C(=O)N1CCC[C@H]1C(=O)N1CCC[C@H]1C(=O)N1CCC[C@H]1C(=O)N[C@@H](CO)C(N)=O)[C@@H](C)CC)[C@@H](C)CC)C(=O)O
Activity against human GLP-1R (EC50 nM); cAMP HTRF, CHO-K1/GLP-1R/CRE-luc cells [5]: 0.029 nM | Activity against human GIPR (EC50 nM); cAMP HTRF, CHO-K1 cells overexpressing hGIP receptor [6]: 0.095 nM

B2: compound 17# (peptide)
peptide: Y[Aib]EGTFTSDYSIYK([AEEA-AEEA-γGlu-Arachidoyl])ERIAAQEFVNWLLAGGPSSGAPPPS-NH2
modifications: N-terminus assumed
SMILES: CCCCCCCCCCCCCCCCCCCC(=O)N[C@@H](CCC(=O)NCCOCCOCC(=O)NCCOCCOCC(=O)NCCCC[C@H](NC(=O)[C@H](Cc1ccc(O)cc1)NC(=O)[C@@H](NC(=O)[C@H](CO)NC(=O)[C@H](Cc1ccc(O)cc1)NC(=O)[C@H](CC(=O)O)NC(=O)[C@H](CO)NC(=O)[C@@H](NC(=O)[C@H](Cc1ccccc1)NC(=O)[C@@H](NC(=O)CNC(=O)[C@H](CCC(=O)O)NC(=O)C(C)(C)NC(=O)[C@@H](N)Cc1ccc(O)cc1)[C@@H](C)O)[C@@H](C)O)[C@@H](C)CC)C(=O)N[C@@H](CCC(=O)O)C(=O)N[C@@H](CCCNC(=N)N)C(=O)N[C@H](C(=O)N[C@@H](C)C(=O)N[C@@H](C)C(=O)N[C@@H](CCC(N)=O)C(=O)N[C@@H](CCC(=O)O)C(=O)N[C@@H](Cc1ccccc1)C(=O)N[C@H](C(=O)N[C@@H](CC(N)=O)C(=O)N[C@@H](Cc1c[nH]c2ccccc12)C(=O)N[C@@H](CC(C)C)C(=O)N[C@@H](CC(C)C)C(=O)N[C@@H](C)C(=O)NCC(=O)NCC(=O)N1CCC[C@H]1C(=O)N[C@@H](CO)C(=O)N[C@@H](CO)C(=O)NCC(=O)N[C@@H](C)C(=O)N1CCC[C@H]1C(=O)N1CCC[C@H]1C(=O)N1CCC[C@H]1C(=O)N[C@@H](CO)C(N)=O)C(C)C)[C@@H](C)CC)C(=O)O
Activity against human GLP-1R (EC50 nM); cAMP HTRF, CHO-K1/GLP-1R/CRE-luc cells [5]: 0.022 nM | Activity against human GIPR (EC50 nM); cAMP HTRF, CHO-K1 cells overexpressing hGIP receptor [6]: 0.11 nM

Y[Aib]EGTFTSDYSIYK([AEEA-AEEA-γGlu-Arachidoyl])EKIAAQEFVNWLLAGGPSSGAPPPS-NH2 [compound 18#]
Activity against human GLP-1R (EC50 nM); cAMP HTRF, CHO-K1/GLP-1R/CRE-luc cells [5]: 0.013 nM | Activity against human GIPR (EC50 nM); cAMP HTRF, CHO-K1 cells overexpressing hGIP receptor [6]: 0.06 nM

Y[Aib]EGTFTSDYSIYK([AEEA-AEEA-γGlu-Arachidoyl])DKIAAQEFVNWLLAGGPSSGAPPPS-NH2 [compound 7#]
Activity against human GLP-1R (EC50 nM); cAMP HTRF, CHO-K1/GLP-1R/CRE-luc cells [7]: 0.021 nM | Activity against human GIPR (EC50 nM); cAMP HTRF, CHO-K1 cells overexpressing hGIP receptor [8]: 0.11 nM
